According to PubChem BioAssay AID1845208 (Molecular Pharmacology Branch, DTP, NCI, 2023):

Tested on: NCI-H196 SCLC complex tumor spheroid viability
Experiment: Anticancer human tumor NCI-H196 cell line growth inhibition;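 also: spheroids exposed to compounds for 7 days before readout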;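 as to viability, T/C: 100% = DMSO vehicle control wells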
Conditions: for IC50: curve of first compound; for viability, T/C: stronger effect = lower value
Source text: Multicellular complex tumor spheroid response to DNA repair inhibitors in combination with DNA-damaging drugs
This study explores the anticancer activities of DNA-damaging drugs and inhibitors of DNA damage repair, both as single agents and in combinations. Complex tumor spheroids comprised of malignant cells, endothelial cells and mesenchymal stem cells served as an in vitro model for human solid tumors. This model system incorporates physiologically relevant features and patient-derived or established malignant cell lines with clinically relevant genetic alterations from many tumor types. Twenty-six patient-derived or established malignant cell lines were evaluated representing sarcoma, melanoma, small cell lung cancer (SCLC), non-small cell lung cancer (NSCLC), as well as bladder, ovarian and pancreatic cancers. The concentration ranges selected for each drug and investigational agent were based upon clinically achievable concentrations if the clinical Cmax of the agent was known.
Compounds. The drugs and compounds olaparib (NSC753686), talazoparib (NSC767125), berzosertib (NSC777718), elimusertib (NSC800525), nedisertib (NSC802822), VX-984 (NSC792969), AZD-1390 (NSC803789), temozolomide (NSC362856), topotecan (NSC609699), trabectedin (NSC813783), staurosporine (NSC755774), and gemcitabine (NSC613327) were obtained from the National Cancer Institute (NCI) Developmental Therapeutics Program Chemical Repository. The FDA-approved anticancer drug set is available from the Developmental Therapeutics Program at https://dtp.cancer.gov/organization/dscb/obtaining/available_plates.htm. […] The stock solutions were prepared in dimethyl sulfoxide (DMSO, Sigma-Aldrich, St. Louis, MO, cat. D2650) at 400-fold the tested concentration and stored at -70 degrees C. Prior to their use, the stock solutions were diluted in fresh medium and the final DMSO concentration in the assay was 0.25% (v/v). All drugs and investigational agents were tested over a range starting from a high concentration at or near the clinical Cmax and decreasing in half-log increments. If the clinical Cmax for an agent had not been determined, the highest concentration tested was 10 microM.
Cell Lines. The patient-derived cancer cell (PDC) lines: 156681-154-R-J1-PDC, 283228-195-R-J1-PDC, 287954-098-R-J1-PDC, 292921-168-R-J2-PDC, 349418-098-R-PDC, 425362-245-T-J1-PDC, 556581-035-R-J1-PDC, and BL0293-F563-PDC were received from the NCI Patient-Derived Models Repository (PDMR, https://pdmr.cancer.gov). The established cell lines HS-SY-2 (RRID:CVCL_8719), MPNST, and SYO-1 (RRID:CVCL_7146) were obtained from the Sloan Kettering Institute. The alveolar soft parts sarcoma cell line ASPS-1 (RRID:CVCL_S738) was established at the NCI and grown from internal seed stocks. The following established cell lines were purchased from the American Type Culture Collection (ATCC, Manassas, VA): G-401 (ATCC, cat. CRL-1441, RRID:CVCL_0270), SW982 (ATCC, cat. HTB-93, RRID:CVCL_1734), VA-ES-BJ (ATCC, cat. CRL-2138, RRID:CVCL_1785), NCI-H719 (ATCC, cat. CRL-5837, RRID:CVCL_1582), NCI-H196 (ATCC, cat. CRL-5823, RRID:CVCL_1509), NCI-H841 (ATCC, cat. CRL-5845, RRID:CVCL_1595), NCI-H1618 (ATCC, cat. CRL-5879, RRID:CVCL_1480), NCI-H1876 (ATCC, cat. CRL-5902, RRID:CVCL_1503), DMS 114 (ATCC, cat. CRL-2066; RRID:CVCL_1174), NCI-H211 (ATCC, cat. CRL-5824; RRID:CVCL_1529), and SW 1271 (ATCC, cat. CRL-2177, RRID:CVCL_1716). The small cell lung cancer cell line COR-L88 was purchased from Sigma-Aldrich (cat. 92031917-1VL, RRID:CVCL_1141). The non-small cell lung cancer cell lines NCI-H226 (RRID:CVCL_1544) and NCI-H322M (RRID:CVCL_1557) were established at the NCI and grown from internal seed stocks. Pooled donor human umbilical vein endothelial cells (HUVEC, Lonza, cat. CC-2519) and human mesenchymal stem cells (hMSC, Lonza, cat. PT-2501) were purchased from Lonza (Walkersville, MD).
Cell Culture. All cells were maintained in an incubator at 37 degrees C and 5% CO2 with 95% humidity. […]

[1] = second compound 0.003 µM, first compound 0.00949 µM
[2] = second compound 0.003 µM, first compound 0.03 µM
[3] = second compound 0.003 µM, first compound 0.0949 µM
[4] = second compound 0.003 µM, first compound 0.3 µM
[5] = second compound 0.003 µM, first compound 0.949 µM
[6] = second compound 0.003 µM, first compound 3 µM
[7] = second compound 0.00949 µM, first compound 0.00949 µM
[8] = second compound 0.00949 µM, first compound 0.03 µM
[9] = second compound 0.00949 µM, first compound 0.0949 µM
[10] = second compound 0.00949 µM, first compound 0.3 µM
[11] = second compound 0.00949 µM, first compound 0.949 µM
[12] = second compound 0.00949 µM, first compound 3 µM
[13] = second compound 0.03 µM, first compound 0.00949 µM
[14] = second compound 0.03 µM, first compound 0.03 µM
[15] = second compound 0.03 µM, first compound 0.0949 µM
[16] = second compound 0.03 µM, first compound 0.3 µM
[17] = second compound 0.03 µM, first compound 0.949 µM
[18] = second compound 0.03 µM, first compound 3 µM
[19] = second compound 0.0949 µM, first compound 0.00949 µM
[20] = second compound 0.0949 µM, first compound 0.03 µM
[21] = second compound 0.0949 µM, first compound 0.0949 µM
[22] = second compound 0.0949 µM, first compound 0.3 µM
[23] = second compound 0.0949 µM, first compound 0.949 µM
[24] = second compound 0.0949 µM, first compound 3 µM
[25] = second compound 0.3 µM, first compound 0.00949 µM
[26] = second compound 0.3 µM, first compound 0.03 µM
[27] = second compound 0.3 µM, first compound 0.0949 µM
[28] = second compound 0.3 µM, first compound 0.3 µM
[29] = second compound 0.3 µM, first compound 0.949 µM
[30] = second compound 0.3 µM, first compound 3 µM

SMILES | IC50 (second compound 0.003 µM) [µM] | IC50 (second compound 0.00949 µM) [µM] | IC50 (second compound 0.03 µM) [µM] | IC50 (second compound 0.0949 µM) [µM] | IC50 (second compound 0.3 µM) [µM] | viability, T/C [3] [%] | viability, T/C [4] [%] | viability, T/C [5] [%] | viability, T/C [6] [%] | viability, T/C [9] [%] | viability, T/C [10] [%] | viability, T/C [11] [%] | viability, T/C [12] [%] | viability, T/C [15] [%] | viability, T/C [16] [%] | viability, T/C [17] [%] | viability, T/C [18] [%] | viability, T/C [21] [%] | viability, T/C [22] [%] | viability, T/C [23] [%] | further results
CNCc1ccc(-c2cc(-c3nc(-c4ccc(S(=O)(=O)C(C)C)cc4)cnc3N)on2)cc1 + CC[C@@]1(O)C(=O)OCc2c1cc1n(c2=O)Cc2cc3c(CN(C)C)c(O)ccc3nc2-1 | > 3 | > 3 | > 3 | > 3 | > 3 | 101 | 94.3 | 86.2 | 76.1 | 112 | 95.7 | 84.1 | 78.7 | 101 | 93.2 | 76.9 | 81.6 | 121 | 88.7 | 89.3 | viability, T/C [1]: 101%; viability, T/C [2]: 102%; viability, T/C [7]: 98.5%; viability, T/C [8]: 99%; viability, T/C [13]: 101%; viability, T/C [14]: 101%; viability, T/C [19]: 99.9%; viability, T/C [20]: 104%; viability, T/C [24]: 75.1%; viability, T/C [25]: 94.9%; viability, T/C [26]: 93.7%; viability, T/C [27]: 92.7%; viability, T/C [28]: 75%; viability, T/C [29]: 65%; viability, T/C [30]: 57.1%
Cc1sc2c(c1C)C(c1ccc(Cl)cc1)=NC(CC(=O)Nc1ccc(O)cc1)c1nnc(C)n1-2 (stereo not given) + CC[C@@]1(O)C(=O)OCc2c1cc1n(c2=O)Cc2cc3c(CN(C)C)c(O)ccc3nc2-1 | 0.613 | 0.688 | 0.656 | 0.755 | 0.373 | 86.2 | 70.2 | 37.8 | 19.2 | 86.8 | 76.6 | 39.1 | 23.7 | 80.3 | 64.7 | 41.8 | 29.9 | 88.1 | 67.4 | 46 | viability, T/C [1]: 98.8%; viability, T/C [2]: 101%; viability, T/C [7]: 98.7%; viability, T/C [8]: 96.1%; viability, T/C [13]: 96.1%; viability, T/C [14]: 84%; viability, T/C [19]: 98%; viability, T/C [20]: 93.6%; viability, T/C [24]: 32.3%; viability, T/C [25]: 92.3%; viability, T/C [26]: 92.8%; viability, T/C [27]: 78.9%; viability, T/C [28]: 49.8%; viability, T/C [29]: 40.1%; viability, T/C [30]: 24.4%
Cn1ncnc1[C@H]1c2n[nH]c(=O)c3cc(F)cc(c23)N[C@@H]1c1ccc(F)cc1 + CC[C@@]1(O)C(=O)OCc2c1cc1n(c2=O)Cc2cc3c(CN(C)C)c(O)ccc3nc2-1 | > 3 | > 3 | > 3 | > 3 | > 3 | 96.9 | 95.3 | 95 | 98.2 | 95.5 | 105 | 104 | 102 | 113 | 108 | 104 | 97.4 | 105 | 110 | 106 | viability, T/C [1]: 97.6%; viability, T/C [2]: 90.2%; viability, T/C [7]: 96.5%; viability, T/C [8]: 87.7%; viability, T/C [13]: 104%; viability, T/C [14]: 110%; viability, T/C [19]: 108%; viability, T/C [20]: 108%; viability, T/C [24]: 96.8%; viability, T/C [25]: 99.1%; viability, T/C [26]: 99.9%; viability, T/C [27]: 91%; viability, T/C [28]: 95.3%; viability, T/C [29]: 91.2%; viability, T/C [30]: 82.5%
O=C(c1cc(Cc2n[nH]c(=O)c3ccccc23)ccc1F)N1CCN(C(=O)C2CC2)CC1 + CC[C@@]1(O)C(=O)OCc2c1cc1n(c2=O)Cc2cc3c(CN(C)C)c(O)ccc3nc2-1 | > 30 | > 30 | > 30 | > 30 | > 30 | 95.4 | 95.2 | 88.3 | 88.2 | 97.7 | 91.3 | 98.7 | 95.9 | 100 | 98 | 101 | 103 | 96.3 | 107 | 99.6 | viability, T/C (second compound 0.003 µM, first compound 9.49 µM): 88.6%; viability, T/C (second compound 0.003 µM, first compound 30 µM): 85.6%; viability, T/C (second compound 0.00949 µM, first compound 9.49 µM): 94.3%; viability, T/C (second compound 0.00949 µM, first compound 30 µM): 96.6%; viability, T/C (second compound 0.03 µM, first compound 9.49 µM): 98.2%; viability, T/C (second compound 0.03 µM, first compound 30 µM): 92%; viability, T/C [24]: 99.6%; viability, T/C (second compound 0.0949 µM, first compound 9.49 µM): 102%; viability, T/C (second compound 0.0949 µM, first compound 30 µM): 97.2%; viability, T/C [27]: 86.8%; viability, T/C [28]: 90.9%; viability, T/C [29]: 88.4%; viability, T/C [30]: 93.9%; viability, T/C (second compound 0.3 µM, first compound 9.49 µM): 82.5%; viability, T/C (second compound 0.3 µM, first compound 30 µM): 83.1%
